Reference: patent US12568967B2, “Compositions comprising pyridine carboxylate herbicides with synthetic auxin herbicides or auxin transport inhibitors” (priority 2018, dated 2026)

Experiments:
[1] = system: Lamium purpureum (purple deadnettle, LAMPU); assay: Greenhouse postemergence trial LAMPU; conditions: for visual injury, Obs: partner herbicide 560 g/ha alone
[2] = system: Stellaria media (chickweed, STEME); assay: Greenhouse postemergence trial STEME; format: in vivo; conditions: STEME; for visual injury, Obs: partner herbicide 560 g/ha alone
[3] = system: Matricaria inodora (false chamomile, MATIN); assay: Greenhouse postemergence trial MATIN; format: in vivo; conditions: MATIN; for visual injury, Obs: partner herbicide 560 g/ha alone
[4] = system: Cirsium arvense (Canadian thistle, CIRAR); assay: Greenhouse postemergence trial CIRAR; format: in vivo; conditions: for visual injury, Obs: partner herbicide 560 g/ha alone; for % visual injury, Obs: applied alone
Description: (§1) Seeds of the desired test plant species were planted in a 90:10% v/v (volume/volume) mixture of PRO-MIX® BX (Premier Tech Horticulture, Quakertown, PA, USA) and PROFILE® GREENS GRADE™ (Profile Products LLC, Buffalo Grove, IL, USA) planting mixture, which typically has a pH of 5.2 to 6.2 and an organic matter content of at least 50 percent, in plastic pots with a surface area of 103.2 square centimeters (cm^2). […] The plants were grown for 7-36 days (d) in a greenhouse with an approximate 14-hour (h) photo-period which was maintained at about 23° C. during the day and 22° C. during the night. Nutrients and water were added on a regular basis and supplemental lighting was provided with overhead metal halide 1000-Watt lamps as necessary. The plants were employed for testing when they reached the second or third true leaf stage.
(§2) Emulsifiable concentrates of each of each pyridine carboxylate herbicide (Compound A or Compound B) were prepared at 100 grams acid equivalent per liter (g ae/L). The emulsifiable concentrates also included a safener, cloquintocet-mexyl, at 120 grams active ingredient per liter (g ai/L), unless otherwise noted below. An aliquot of each emulsifiable concentrate was placed in a 25 mL glass vial and diluted with an aqueous mixture of 1.25% (v/v) ACTIROB® B esterified rapeseed oil (Bayer Crop Science, Research Triangle Park, NC, USA) or MSO® Concentrate with LECI-TECH® methylated soybean oil (Loveland Products, Loveland, CO, USA) to obtain concentrated stock solutions at the highest application rate for each herbicide, based upon a 12 milliliter (mL) application volume at a rate of 187 liters per hectare (L/ha). The concentrated stock solutions were further diluted with an aqueous mixture of 1.25% v/v ACTIROB® B or MSO® Concentrate with LECI-TECH® to obtain stock solutions at reduced application rates for each herbicide. Spray solutions of the herbicide combinations (Compound A or Compound B plus synthetic auxin herbicide or auxin transport inhibitor) were prepared by adding weighed amounts or aliquots of the synthetic auxin herbicide or auxin transport inhibitor to the stock solutions of Compound A or Compound B to form 12-mL spray solutions in two-way combinations.
(§3) The spray solutions were applied to the plant material with an overhead Mandel track sprayer equipped with 8002E nozzles calibrated to deliver 187 L/ha over an application area of 0.503 square meters (m^2) at a spray height of 18 inches (43 centimeters (cm)) above the average plant canopy. Control plants were sprayed in the same manner with the solvent blank. All pyridine carboxylate herbicide (component a) application rates are given as “g ae/ha” and all synthetic auxin herbicide or auxin transport inhibitor (component b) application rates are given as “g ai/ha.”
(§4) The treated plants and control plants were placed in a greenhouse as described above and watered by sub-irrigation to prevent wash-off of the test compounds. After 20-22 d, the condition of the test plants as compared with that of the control plants was determined visually and scored on a scale of 0 to 100 percent where 0 corresponds to no injury and 100 corresponds to complete kill.

[5] = system: Capsella bursa-pastoris (shepherd's purse, CAPBP); assay: Greenhouse postemergence trial CAPBP; format: in vivo; conditions: CAPBP; for visual injury, Obs: partner herbicide 560 g/ha alone
[6] = system: Chenopodium album L. (common lambsquarters, CHEAL); assay: Greenhouse postemergence trial CHEAL; format: in vivo;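 also: greenhouse plants sprayed at second to third true leaf stage, injury rated by eye after 20-22 d versus solvent-blank sprayed controls, 0 = no injury, 100 = complete kill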
Description: (§5) The plants were grown for 7-36 days (d) in a greenhouse with an approximate 14-hour (h) photo-period which was maintained at about 23° C. during the day and 22° C. during the night. Nutrients and water were added on a regular basis and supplemental lighting was provided with overhead metal halide 1000-Watt lamps as necessary. The plants were employed for testing when they reached the second or third true leaf stage.
(§6) The emulsifiable concentrates also included a safener, cloquintocet-mexyl, at 120 grams active ingredient per liter (g ai/L), unless otherwise noted below.
(§7) Control plants were sprayed in the same manner with the solvent blank. All pyridine carboxylate herbicide (component a) application rates are given as “g ae/ha” and all synthetic auxin herbicide or auxin transport inhibitor (component b) application rates are given as “g ai/ha.”
as §4

[7] = system: Anthemis arvensis (field chamomile, ANTAR); assay: Greenhouse postemergence trial ANTAR; format: in vivo; conditions: ANTAR; for visual injury, Obs: partner herbicide 560 g/ha alone
Description: as §1, §2, §3, §4

[8] = system: Matricaria chamomilla (wild chamomile, MATCH); assay: Greenhouse postemergence trial MATCH; format: in vivo; conditions: MATCH; for % visual injury, Obs: applied alone; for visual injury, Obs: partner herbicide 560 g/ha alone;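 as to all read-outs here: greenhouse plants sprayed at second to third true leaf stage, injury rated by eye 20-22 d later versus solvent-blank controls on 0–100 scale, 0 no injury, 100 complete kill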
Description: as §5, §6, §7, §4

[9] = system: Kochia scoparia (kochia, KCHSC); assay: Greenhouse postemergence trial KCHSC; format: in vivo; conditions: KCHSC; for visual injury, Obs: partner herbicide 560 g/ha alone; for % visual injury, Obs: applied alone
[10] = system: Veronica hederifolia (ivyleaf speedwell, VERHE); assay: Greenhouse postemergence trial VERHE; format: in vivo; conditions: VERHE; for visual injury, Obs: partner herbicide 560 g/ha alone
Description: as §1, §2, §3, §4

[11] = system: Salsola kali (Russian thistle, SASKR); assay: Greenhouse postemergence trial SASKR; format: in vivo; conditions: SASKR; for visual injury, Obs: partner herbicide 560 g/ha alone; for % visual injury, Obs: applied alone;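 as to all read-outs here: greenhouse plants sprayed at second or third true leaf stage, injury rated by eye after 20-22 d against solvent-blank controls, 0 meaning no injury, 100 complete kill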
Description: as §5, §6, §7, §4

[12] = system: Polygonum convolvulus (wild buckwheat, POLCO); assay: Greenhouse postemergence trial POLCO; format: in vivo; conditions: POLCO; for visual injury, Obs: partner herbicide 560 g/ha alone; for % visual injury, Obs: applied alone
Description: as §1, §2, §3, §4

[13] = system: Papaver rhoeas (corn poppy, PAPRH); assay: Greenhouse postemergence trial PAPRH; format: in vivo; conditions: PAPRH; for visual injury, Obs: partner herbicide 560 g/ha alone
[14] = system: Viola arvensis (field violet, VIOAR); assay: Greenhouse postemergence trial VIOAR; format: in vivo; conditions: VIOAR; for visual injury, Obs: partner herbicide 560 g/ha alone
Description: as §1, §2, §3, §4

[15] = system: Viola tricolor (wild pansy, VIOTR); assay: Greenhouse postemergence trial VIOTR; conditions: for visual injury, Obs: partner herbicide 560 g/ha alone;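 as to all read-outs here: greenhouse plants sprayed at second to third true leaf stage, injury rated visually after 20-22 d against solvent-blank sprayed controls, 0 meaning no injury and 100 complete kill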
[16] = system: Matricaria discoidea (pineapple weed, MATMT); assay: Greenhouse postemergence trial MATMT; format: in vivo; conditions: for visual injury, Obs: partner herbicide 560 g/ha alone
[17] = system: Brassica napus (winter rape, BRSNW); assay: Greenhouse postemergence trial BRSNW; format: in vivo; conditions: for visual injury, Obs: partner herbicide 560 g/ha alone
[18] = system: Veronica persica (bird's-eye speedwell, VERPE); assay: Greenhouse postemergence trial VERPE; format: in vivo; conditions: for visual injury, Obs: partner herbicide 560 g/ha alone
[19] = system: Amaranthus retroflexus (pigweed, AMARE); assay: Greenhouse postemergence trial AMARE; format: in vivo; conditions: for % visual injury, Obs: AMARE, applied alone;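 as to all read-outs here: Greenhouse-grown plants sprayed at second to third true leaf stage, injury rated by eye after 20-22 d versus solvent-blank sprayed controls, 0 = no injury, 100 = complete kill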
[20] = system: Sinapis arvensis (wild mustard, SINAR); assay: Greenhouse postemergence trial SINAR; format: in vivo; conditions: SINAR; for visual injury, Obs: partner herbicide 560 g/ha alone; for % visual injury, Obs: applied alone
[21] = system: Cyanus segetum (cornflower, CENCY); assay: Greenhouse postemergence trial CENCY; format: in vivo; conditions: CENCY; for visual injury, Obs: partner herbicide 560 g/ha alone
[22] = system: Papaver rhoeas (corn poppy), herbicide-resistant (PAPRH-R); assay: Greenhouse postemergence trial PAPRH-R; format: in vivo; conditions: for visual injury, Obs: partner herbicide 560 g/ha alone
[23] = system: Triticum aestivum (spring wheat, TRZAS); format: in vivo
Description: as §1, §2, §3, §4

[24] = system: Hordeum vulgare (spring barley, HORVS); format: in vivo
[25] = system: Triticum aestivum (winter wheat, TRZAW); assay: Greenhouse postemergence crop phytotoxicity TRZAW; format: in vivo; conditions: TRZAW; partner herbicide 560 g/ha alone
Description: as §1, §2, §3, §4

[26] = system: Hordeum vulgare (winter barley, HORVW); assay: Greenhouse postemergence crop phytotoxicity HORVW; format: in vivo; conditions: HORVW; partner herbicide 560 g/ha alone
[27] = c1-2 Compound A 7.5/10, c3 Dicamba 140, c4-5 A 7.5/10 + Dicamba 140 g/ha

## COc1c(Cl)ccc(Cl)c1C(=O)O [Dicamba, dicamba, reference compound]
[1]; LAMPU
  visual injury, Obs: 20%
[2]
  visual injury, Obs: 75%
[3]
  visual injury, Obs: 70%
[4]; CIRAR
  visual injury, Obs: 70%
[5]
  visual injury, Obs: 60%
[6]; [27]
  % visual injury: 48%
[7]
  visual injury, Obs: 100%
[8]; 140 g/ha
  % visual injury, Obs: 3%
[8]
  visual injury, Obs: 35%
[9]
  visual injury, Obs: 80%
[10]
  visual injury, Obs: 75%
[11]
  visual injury, Obs: 65%
[12]
  visual injury, Obs: 100%
[13]
  visual injury, Obs: 30%
[14]
  visual injury, Obs: 30%
[15]; VIOTR
  visual injury, Obs: 20%
[16]; MATMT
  visual injury, Obs: 25%
[17]; BRSNW
  visual injury, Obs: 70%
[17]; Brassica napus, post-emergence, BRSNW, applied alone, 140 g/ha, read-out: % visual injury, Obs
  plant injury at 140 g/ha: 23%
[18]; VERPE
  visual injury, Obs: 60%
[19]; 140 g/ha
  % visual injury, Obs: 60%
[19]; [27]
  % visual injury: 50%
[20]
  visual injury, Obs: 85%
[21]
  visual injury, Obs: 100%
[22]; PAPRH-R
  visual injury, Obs: 30%

## Nc1c(Cl)c(F)nc(OCC(=O)O)c1Cl [Fluroxypyr]
[1]; Lamium purpureum, post-emergence, read-out: % visual injury Obs
  pest or weed control at 200 g/ha: 65%
[2]; Stellaria media, post-emergence, Fluroxypyr 200 g/ha, read-out: % visual injury Obs
  pest or weed control: 95%
[3]; Tripleurospermum inodorum, post-emergence, Fluroxypyr 200 g/ha, read-out: % visual injury Obs
  pest or weed control: 65%
[4]; Cirsium arvense, post-emergence, CIRAR, Fluroxypyr 200 g/ha, read-out: % visual injury Obs
  pest or weed control: 10%
[5]; Capsella bursa-pastoris, post-emergence, Fluroxypyr 200 g/ha, read-out: % visual injury Obs
  pest or weed control: 10%
[7]; Anthemis arvensis, post-emergence, Fluroxypyr 200 g/ha, read-out: % visual injury Obs
  pest or weed control: 60%
[8]; Matricaria chamomilla, post-emergence, Fluroxypyr 200 g/ha, read-out: % visual injury Obs
  pest or weed control: 10%
[9]; Bassia scoparia, post-emergence, Fluroxypyr 200 g/ha, read-out: % visual injury Obs
  pest or weed control: 70%
[10]; Veronica hederifolia, post-emergence, Fluroxypyr 200 g/ha, read-out: % visual injury Obs
  pest or weed control: 10%
[11]; Salsola kali, post-emergence, Fluroxypyr 200 g/ha, read-out: % visual injury Obs
  pest or weed control: 60%
[12]; Fallopia convolvulus, post-emergence, Fluroxypyr 200 g/ha, read-out: % visual injury Obs
  pest or weed control: 50%
[13]; Papaver rhoeas, post-emergence, Fluroxypyr 200 g/ha, read-out: % visual injury Obs
  pest or weed control: 0%
[14]; Viola arvensis, post-emergence, Fluroxypyr 200 g/ha, read-out: % visual injury Obs
  pest or weed control: 10%
[15]; Viola tricolor, post-emergence, read-out: % visual injury Obs
  pest or weed control at 200 g/ha: 65%
[16]; Fluroxypyr 70 g/ha (Table 38)
  MATMT % visual injury Obs: 10%
[16]; Fluroxypyr 100 g/ha (Table 38)
  MATMT % visual injury Obs: 10%
[16]; Matricaria discoidea, post-emergence, MATMT, Fluroxypyr 200 g/ha, read-out: % visual injury Obs
  pest or weed control: 0%
[17]; Brassica napus, post-emergence, BRSNW, Fluroxypyr 200 g/ha, read-out: % visual injury Obs
  plant injury: 30%
[18]; Veronica persica, post-emergence, VERVE, Fluroxypyr 200 g/ha, read-out: % visual injury Obs
  pest or weed control: 60%
[20]; Mutarda arvensis, post-emergence, Fluroxypyr 200 g/ha, read-out: % visual injury Obs
  pest or weed control: 90%
[21]; Centaurea cyanus, post-emergence, Fluroxypyr 200 g/ha, read-out: % visual injury Obs
  pest or weed control: 100%
[22]; Fluroxypyr 70 g/ha (Table 38)
  PAPRH-R % visual injury Obs: 25%
[22]; Fluroxypyr 100 g/ha (Table 38)
  PAPRH-R % visual injury Obs: 25%
[22]; Papaver rhoeas, post-emergence, PAPRH-R, Fluroxypyr 200 g/ha, read-out: % visual injury Obs
  pest or weed control: 10%

## COC(=O)c1nc(-c2ccc(Cl)c(OC)c2F)cc(N)c1Cl [Halatvcifen-methyl]
[4]; CIRAR, 3 g/ha
  % visual injury, Obs: 10%
[6]; CHEAL, applied alone, 3 g/ha
  % visual injury, Obs: 83%
[8]; 3 g/ha
  % visual injury, Obs: 5%
[9]; 3 g/ha
  % visual injury, Obs: 40%
[23]; TRZAS, applied alone, 3 g/ha
  % visual injury, Obs: 0%
[11]; 3 g/ha
  % visual injury, Obs: 73%
[12]; 3 g/ha
  % visual injury, Obs: 20%
[17]; BRSNW, applied alone, 3 g/ha
  % visual injury, Obs: 15%
[19]; 3 g/ha
  % visual injury, Obs: 68%
[20]; 3 g/ha
  % visual injury, Obs: 40%
[24]; HORVS, applied alone, 3 g/ha
  % visual injury, Obs: 0%

## CC(Oc1ccc(Cl)cc1Cl)C(=O)O (stereo not shown) [Dichlorprop]
[1]; LAMPU, applied alone, 560 g/ha
  % visual injury, Obs: 30%
[2]; applied alone, 560 g/ha
  % visual injury, Obs: 30%
[3]; applied alone, 560 g/ha
  % visual injury, Obs: 60%
[4]; CIRAR, 560 g/ha
  % visual injury, Obs: 75%
[5]; applied alone, 560 g/ha
  % visual injury, Obs: 70%
[7]; applied alone, 560 g/ha
  % visual injury, Obs: 95%
[8]; 560 g/ha
  % visual injury, Obs: 50%
[9]; 560 g/ha
  % visual injury, Obs: 75%
[10]; applied alone, 560 g/ha
  % visual injury, Obs: 60%
[11]; 560 g/ha
  % visual injury, Obs: 70%
[12]; 560 g/ha
  % visual injury, Obs: 95%
[13]; applied alone, 560 g/ha
  % visual injury, Obs: 65%
[14]; applied alone, 560 g/ha
  % visual injury, Obs: 25%
[15]; VIOTR, applied alone, 560 g/ha
  % visual injury, Obs: 85%
[16]; MATMT, applied alone, 560 g/ha
  % visual injury, Obs: 10%
[17]; Brassica napus, post-emergence, BRSNW, applied alone, 560 g/ha, read-out: % visual injury, Obs
  plant injury at 560 g/ha: 75%
[18]; VERPE, applied alone, 560 g/ha
  % visual injury, Obs: 30%
[20]; 560 g/ha
  % visual injury, Obs: 100%
[21]; applied alone, 560 g/ha
  % visual injury, Obs: 100%
[22]; PAPRH-R, applied alone, 560 g/ha
  % visual injury, Obs: 30%

## Cc1cc(Cl)ccc1OCC(=O)O [MCPA-DMA, MCPA-dimethylammonium, reference compound]
[4]; in vivo
  CIRAR % visual injury Obs: 60%
[6]; in vivo
  % visual injury: 75%
[23]; Triticum aestivum (spring wheat, TRZAS), in vivo
  % visual injury (crop phytotoxicity): 0%
[23]; in vivo
  TRZAS % visual injury Obs: 0%
[17]; MCPA-DMA 400 g/ha (Table 37)
  BRSNW % visual injury Obs: 83%
[19]; in vivo
  % visual injury: 63%
[24]; Hordeum vulgare (spring barley, HORVS), in vivo
  % visual injury (crop phytotoxicity): 0%
[24]; in vivo
  HORVS % visual injury Obs: 0%

## Cc1cc(Cl)ccc1OCC(=O)O [MCPA]
[1]; LAMPU
  visual injury, Obs: 10%
[2]
  visual injury, Obs: 50%
[3]
  visual injury, Obs: 50%
[4]; CIRAR
  visual injury, Obs: 65%
[5]
  visual injury, Obs: 60%
[7]
  visual injury, Obs: 60%
[8]
  visual injury, Obs: 30%
[25]
  visual injury, Obs: 0%
[9]
  visual injury, Obs: 30%
[23]; TRZAS, partner herbicide 560 g/ha alone
  visual injury, Obs: 0%
[10]
  visual injury, Obs: 65%
[26]
  visual injury, Obs: 0%
[11]
  visual injury, Obs: 30%
[12]
  visual injury, Obs: 30%
[13]
  visual injury, Obs: 95%
[14]
  visual injury, Obs: 20%
[15]; VIOTR
  visual injury, Obs: 60%
[16]; MATMT
  visual injury, Obs: 5%
[17]; BRSNW
  visual injury, Obs: 90%
[18]; VERPE
  visual injury, Obs: 60%
[20]
  visual injury, Obs: 100%
[24]; HORVS, partner herbicide 560 g/ha alone
  visual injury, Obs: 0%
[21]
  visual injury, Obs: 95%
[22]; PAPRH-R
  visual injury, Obs: 60%
